Data on 14 compounds can be found in patent US20250215029A1 (Recludix Pharma, Inc., priority 2022, published 2025).

Molecules are shown by their SMILES.

Test [1] has as its target T1, Recombinant STAT6 protein (STAT6 (W123-T658)) (Homo sapiens, UniProt P42226).
T1 construct: Recombinant STAT6 protein (STAT6 (W123-T658))
T1 sequence (P42226 123-658): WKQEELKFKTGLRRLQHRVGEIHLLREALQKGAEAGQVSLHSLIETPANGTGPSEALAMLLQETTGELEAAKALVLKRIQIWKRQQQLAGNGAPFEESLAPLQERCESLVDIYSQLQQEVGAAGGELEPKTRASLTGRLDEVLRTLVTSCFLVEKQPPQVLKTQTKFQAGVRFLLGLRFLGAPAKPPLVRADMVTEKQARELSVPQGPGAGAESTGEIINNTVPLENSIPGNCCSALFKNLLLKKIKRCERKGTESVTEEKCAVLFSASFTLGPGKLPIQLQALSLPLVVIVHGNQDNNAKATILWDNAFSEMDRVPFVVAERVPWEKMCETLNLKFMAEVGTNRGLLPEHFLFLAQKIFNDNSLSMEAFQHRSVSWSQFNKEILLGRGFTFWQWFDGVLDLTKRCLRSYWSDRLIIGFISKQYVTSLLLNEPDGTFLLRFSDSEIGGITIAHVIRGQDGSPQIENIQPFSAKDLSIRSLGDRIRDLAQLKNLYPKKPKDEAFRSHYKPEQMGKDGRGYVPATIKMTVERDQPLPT
As to the kind of experiment: STAT6 Fluorescence Polarization (FP) Assay. The format is binding. Conditions: STAT6 250 nM, probe 5-FAM-Ap[…]-NH2 2 nM, 45-minute incubation; read-out: STAT6 (FP assay IC50). The procedure, abridged:
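Fluorescence polarization (mP) read-out: 250 nM STAT6 (W123-T658) plus 2 nM 5-FAM phosphotyrosine peptide, 45 min, room temperature, 1% DMSO. IC50 by nonlinear fit of mP against log compound concentration.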
On the technique in general: Polarisation of emitted light reports the rotation of a fluorescent probe.

Test [2] deals with T2, Recombinant STAT3 protein (STAT3 (G127-I722)) (Homo sapiens, UniProt P40763).
T2 construct: Recombinant STAT3 protein (STAT3 (G127-I722))
The test can be described thus: STAT3 Fluorescence Polarization (FP) Assay. It counts as binding. The conditions noted are these: STAT3 25 nM, probe 5-FAM-GpYLPQTV-NH2 2 nM, 45-minute incubation; read-out: STAT3 (FP assay IC50). A digest of the protocol: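 Read-out is fluorescence polarization (mP) after 45 min at room temperature, with IC50 fitted by nonlinear regression against log compound concentration. Mixture: 25 nM STAT3 (G127-I722), 2 nM 5-FAM-GpYLPQTV-NH2 phosphopeptide, 10 mM HEPES pH 7.4 buffer, 1% DMSO.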

T2 sequence (P40763 127-722): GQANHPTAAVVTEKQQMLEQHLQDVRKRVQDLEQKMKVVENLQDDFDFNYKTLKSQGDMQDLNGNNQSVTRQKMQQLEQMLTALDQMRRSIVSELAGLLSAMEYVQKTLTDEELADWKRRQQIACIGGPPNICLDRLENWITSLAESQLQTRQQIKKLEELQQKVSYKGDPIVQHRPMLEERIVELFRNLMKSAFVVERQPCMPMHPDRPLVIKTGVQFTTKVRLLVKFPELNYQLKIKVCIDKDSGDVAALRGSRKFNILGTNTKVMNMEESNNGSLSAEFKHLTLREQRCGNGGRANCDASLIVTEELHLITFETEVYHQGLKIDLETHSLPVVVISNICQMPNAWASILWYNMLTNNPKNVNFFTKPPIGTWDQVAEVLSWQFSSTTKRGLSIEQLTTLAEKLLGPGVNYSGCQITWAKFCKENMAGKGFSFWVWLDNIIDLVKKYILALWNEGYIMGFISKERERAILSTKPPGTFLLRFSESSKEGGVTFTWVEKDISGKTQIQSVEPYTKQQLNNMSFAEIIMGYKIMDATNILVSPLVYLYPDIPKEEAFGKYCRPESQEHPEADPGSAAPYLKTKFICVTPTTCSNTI

As to `O=C(N[C@H]1CCCC[C@H]2CC[C@@H](C(=O)N3CC4(CNS(=O)(=O)C4)C3)N2C1=O)c1cc2cc(C(F)(F)P(=O)(O)O)ccc2s1` [Compound 71, ((2-(((3S,6S,10aS)-3-(6,6-dioxido-6-thia-2,7-diazaspiro[3.4]octane-2-carbonyl)-5-oxodecahydropyrrolo [1,2-a]azocin-6-yl)carbamoyl)benzo[b]thiophen-5-yl)difluoromethyl) phosphonic acid], the IC50 (in general, the midpoint of a concentration-inhibition curve) in test [1] lay in the range of 300 to 3000 nM; in test [2], 100 to 1000 nM.

On to `O=C(N[C@H]1CCCC[C@H]2CC[C@@H](C(=O)N3CC4(CC(C5CC5)=NO4)C3)N2C1=O)c1cc2cc(C(F)(F)P(=O)(O)O)ccc2s1` [Compound 72, ((2-(((3S,6S,10aS)-3-(7-cyclopropyl-5-oxa-2,6-diazaspiro[3.4]oct-6-ene-2-carbonyl)-5-oxodecahydropyrrolo [1,2-a]azocin-6-yl)carbamoyl)benzo[b]thiophen-5-yl)difluoromethyl) phosphonic acid], for which the IC50 in test [1] was in the range of 300 to 3000 nM; in test [2] it was 100 to 1000 nM.

On to `CS(=N)(=O)C1CN(C(=O)[C@@H]2CC[C@@H]3CCCC[C@H](NC(=O)c4cc5cc(C(F)(F)P(=O)(O)O)ccc5s4)C(=O)N32)C1` (stereo partly drawn) [Compound 73, (difluoro(2-(((3S,6S,10aS)-3-(3-(S-methylsulfonimidoyl)azetidine-1-carbonyl)-5-oxodecahydropyrrolo [1,2-a]azocin-6-yl)carbamoyl)benzo[b]thiophen-5-yl)methyl) phosphonic acid], for which the IC50 in test [1] fell in the range of 3000 to 30000 nM; in test [2], 100 to 1000 nM.

Consider `O=C(N[C@H]1CCCCC[C@H]2[C@H](O)C[C@@H](C(=O)N3CC(C(=O)N4CCOCC4)C3)N2C1=O)c1cc2cc(C(F)(F)P(=O)(O)O)ccc2s1` [Compound 77, (difluoro(2-(((1R,3S,6S, 11aS)-1-hydroxy-3-(3-(morpholine-4-carbonyl)azetidine-1-carbonyl)-5-oxodecahydro-1H-pyrrolo[1,2-a]azonin-6-yl)carbamoyl)benzo[b]thiophen-5-yl)methyl) phosphonic acid], for which the IC50 fell in the range of 3000 to 30000 nM in test [1] and 100 to 1000 nM in test [2].

Regarding `O=C(N[C@H]1CCC[C@H]2CC[C@@H](C(=O)N3CC(c4cccnc4)C3)N2C1=O)c1cc2cc(CP(=O)(O)O)ccc2s1` [Compound 78, ((2-(((3S,6S,9aS)-5-oxo-3-(3-(pyridin-3-yl)azetidine-1-carbonyl)octahydro-1H-pyrrolo[1,2-a]azepin-6-yl)carbamoyl)benzo[b]thiophen-5-yl)methyl) phosphonic acid], the IC50 in test [1] is more than 30000 nM; in test [2], 100 to 1000 nM.

Consider `C[C@@H]1[C@@H](n2ccnc2)CN1C(=O)[C@@H]1CC[C@@H]2CCC[C@H](NC(=O)c3cc4cc(C(F)(F)P(=O)(O)O)ccc4s3)C(=O)N21` [Compound 81, ((2-(((3S,6S,9aS)-3-((2R,3S)-3-(1H-imidazol-1-yl)-2-methylazetidine-1-carbonyl)-5-oxooctahydro-1H-pyrrolo[1,2-a]azepin-6-yl)carbamoyl)benzo[b]thiophen-5-yl)difluoromethyl) phosphonic acid], for which the IC50 in test [1] was 300 to 3000 nM; in test [2], less than 100 nM.

For the compound `O=C(N[C@H]1CCCC[C@H]2CC[C@@H](C(=O)N3CC[C@@H](c4ccccc4)C3)N2C1=O)c1cc2cc(C(F)(F)P(=O)(O)O)ccc2s1` [Compound 82, (difluoro(2-(((3S,6S,10aS)-5-oxo-3-((S)-3-phenylpyrrolidine-1-carbonyl)decahydropyrrolo [1,2-a]azocin-6-yl)carbamoyl)benzo[b]thiophen-5-yl)methyl) phosphonic acid], the IC50 was not above 300 nM in test [1] and 100 to 1000 nM in test [2].

Take `C[C@]1(NC(=O)c2cc3cc(C(F)(F)P(=O)(O)O)ccc3s2)CCCC[C@H]2CC[C@@H](C(=O)N3CC(c4ccccn4)C3)N2C1=O` [Compound 85, (difluoro(2-(((3S,6S,10aS)-6-methyl-5-oxo-3-(3-(pyridin-2-yl)azetidine-1-carbonyl)decahydropyrrolo [1,2-a]azocin-6-yl)carbamoyl)benzo[b]thiophen-5-yl)methyl) phosphonic acid]: the IC50 is 3000 to 30000 nM in test [1] and less than 100 nM in test [2].

For `CN(C)S(=O)(=O)N1CCN(C(=O)[C@@H]2CC[C@@H]3CCCC[C@H](NC(=O)c4cc5cc(C(F)(F)P(=O)(O)O)ccc5s4)C(=O)N32)CC1` [Compound 87, ((2-(((3S,6S,10aS)-3-(4-(N,N-dimethylsulfamoyl)piperazine-1-carbonyl)-5-oxodecahydropyrrolo [1,2-a]azocin-6-yl)carbamoyl)benzo[b]thiophen-5-yl)difluoromethyl) phosphonic acid], the values for the IC50 in test [1] and in test [2] were 300 to 3000 nM and 100 to 1000 nM, respectively.

For the compound `O=C(NC1CCCC[C@H]2CC[C@@H](C(=O)N3CC(c4ccccc4)CC34CC4)N2C1=O)c1cc2cc(C(F)(F)P(=O)(O)O)ccc2s1` (stereo partly drawn) [Compound 89, (difluoro(2-(((3S,10aS)-5-oxo-3-(6-phenyl-4-azaspiro[2.4]heptane-4-carbonyl)decahydropyrrolo [1,2-a]azocin-6-yl)carbamoyl)benzo[b]thiophen-5-yl)methyl) phosphonic acid], the IC50 was not above 300 nM in test [1] and 1000 to 10000 nM in test [2].

In the case of `O=C(N[C@H]1CCCC[C@H]2CC[C@@H](C(=O)N3CC(C(=O)N4CCOCC4)C3)N2C1=O)c1cc2cc(C(F)(F)P(=O)(O)O)ccc2s1` [Compound 93, (difluoro(2-(((3S,6S,10aS)-3-(3-(morpholine-4-carbonyl)azetidine-1-carbonyl)-5-oxodecahydropyrrolo [1,2-a]azocin-6-yl)carbamoyl)benzo[b]thiophen-5-yl)methyl) phosphonic acid], the IC50 in test [1] lay within 3000 to 30000 nM; in test [2], 100 to 1000 nM.

As to `O=C(N[C@H]1CCC[C@H]2CC[C@@H](C(=O)N3CC(C(=O)N4CCOCC4)C3)N2C1=O)c1cc2cc(C(F)(F)P(=O)(O)O)ccc2s1` [Compound 94, (difluoro(2-(((3S,6S,9aS)-3-(3-(morpholine-4-carbonyl)azetidine-1-carbonyl)-5-oxooctahydro-1H-pyrrolo[1,2-a]azepin-6-yl)carbamoyl)benzo[b]thiophen-5-yl)methyl) phosphonic acid], the values for the IC50 in test [1] and in test [2] were 3000 to 30000 nM and 100 to 1000 nM, respectively.

Consider `O=C(N[C@H]1C=CC[C@H]2CC[C@@H](C(=O)Nc3ccc(-c4ccccc4)cc3)N2C1=O)c1cc2cc(C(F)(F)P(=O)(O)O)ccc2s1` [Compound 97, ((2-(((3S,6S,9aR)-3-([1,1′-biphenyl]-4-ylcarbamoyl)-5-oxo-2,3,5,6,9,9a-hexahydro-1H-pyrrolo[1,2-a]azepin-6-yl)carbamoyl)benzo[b]thiophen-5-yl)difluoromethyl) phosphonic acid], for which the IC50 lay in the range of 300 to 3000 nM in test [1] and 100 to 1000 nM in test [2].

As for `O=C(N[C@H]1CCCC[C@H]2CC[C@@H](C(=O)NC(CO)Cc3ccccc3)N2C1=O)c1cc2cc(C(F)(F)P(=O)(O)O)ccc2s1` (stereo partly drawn) [Compound 98, (difluoro(2-(((3S,6S,10aS)-3-((1-hydroxy-3-phenylpropan-2-yl)carbamoyl)-5-oxodecahydropyrrolo [1,2-a]azocin-6-yl)carbamoyl)benzo[b]thiophen-5-yl)methyl) phosphonic acid], the IC50 fell in the range of 3000 to 30000 nM in test [1] and 100 to 1000 nM in test [2].
